ChEMBL document CHEMBL4507315 (2021)

Legend:
[1] = biological target: Mitogen-activated protein kinase 1 (Homo sapiens) (UniProt P28482); conditions: Compound concentration 100.0 nM
[2] = biological target: TRAF2 and NCK-interacting protein kinase (Homo sapiens) (UniProt Q9UKE5); conditions: Compound concentration 100.0 nM
[3] = biological target: Mitogen-activated protein kinase kinase kinase 6 (Homo sapiens) (UniProt O95382); conditions: Compound concentration 100.0 nM
[4] = biological target: Serine/threonine-protein kinase LATS1 (Homo sapiens) (UniProt O95835); conditions: Compound concentration 100.0 nM
[5] = biological target: Casein kinase I isoform gamma-3 (Homo sapiens) (UniProt Q9Y6M4); conditions: Compound concentration 100.0 nM
[6] = biological target: Ankyrin repeat and protein kinase domain-containing protein 1 (Homo sapiens) (UniProt Q8NFD2); conditions: Compound concentration 100.0 nM
[7] = biological target: Ribosomal protein S6 kinase alpha-3 (Homo sapiens) (UniProt P51812); conditions: Compound concentration 100.0 nM
[8] = system: Tyrosine-protein kinase ABL1 (Homo sapiens), P00519 [F317I]; conditions: Compound concentration 100.0 nM
[9] = biological target: Phosphatidylinositol 4,5-bisphosphate 3-kinase catalytic subunit gamma isoform (Homo sapiens) (UniProt P48736); conditions: Compound concentration 100.0 nM
[10] = biological target: Serine/threonine-protein kinase RIO2 (Homo sapiens) (UniProt Q9BVS4); conditions: Compound concentration 100.0 nM
[11] = biological target: Non-receptor tyrosine-protein kinase TYK2 (Homo sapiens) (UniProt P29597); conditions: Compound concentration 100.0 nM
[12] = biological target: Protein kinase C delta type (Homo sapiens) (UniProt Q05655); conditions: Compound concentration 100.0 nM
[13] = biological target: Tyrosine-protein kinase JAK3 (Homo sapiens) (UniProt P52333); conditions: Compound concentration 100.0 nM
[14] = biological target: Tyrosine-protein kinase HCK (Homo sapiens) (UniProt P08631); conditions: Compound concentration 100.0 nM
[15] = biological target: Phosphorylase b kinase gamma catalytic chain, skeletal muscle/heart isoform (Homo sapiens) (UniProt Q16816); conditions: Compound concentration 100.0 nM
[16] = biological target: Serine/threonine-protein kinase PLK1 (Homo sapiens) (UniProt P53350); conditions: Compound concentration 100.0 nM
[17] = biological target: Casein kinase II subunit alpha' (Homo sapiens) (UniProt P19784); conditions: Compound concentration 100.0 nM
[18] = biological target: Serine/threonine-protein kinase Sgk1 (Homo sapiens) (UniProt O00141); conditions: Compound concentration 100.0 nM
[19] = system: Phosphatidylinositol 4,5-bisphosphate 3-kinase catalytic subunit alpha isoform (Homo sapiens), P42336 [M1043I]; conditions: Compound concentration 100.0 nM
[20] = biological target: Mitogen-activated protein kinase 8 (Homo sapiens) (UniProt P45983); conditions: Compound concentration 100.0 nM
[21] = biological target: Calcium/calmodulin-dependent protein kinase type 1B (Homo sapiens) (UniProt Q6P2M8); conditions: Compound concentration 100.0 nM
[22] = biological target: Casein kinase I isoform alpha (Homo sapiens) (UniProt P48729); conditions: Compound concentration 100.0 nM
[23] = biological target: Rho-associated protein kinase 2 (Homo sapiens) (UniProt O75116); conditions: Compound concentration 100.0 nM
[24] = biological target: Dual specificity protein kinase TTK (Homo sapiens) (UniProt P33981); conditions: Compound concentration 100.0 nM
[25] = biological target: STE20/SPS1-related proline-alanine-rich protein kinase (Homo sapiens) (UniProt Q9UEW8); conditions: Compound concentration 100.0 nM
[26] = biological target: Serine/threonine-protein kinase WNK4 (Homo sapiens) (UniProt Q96J92); conditions: Compound concentration 100.0 nM
[27] = biological target: Mitogen-activated protein kinase kinase kinase 15 (Homo sapiens) (UniProt Q6ZN16); conditions: Compound concentration 100.0 nM
[28] = biological target: Protein-tyrosine kinase 6 (Homo sapiens) (UniProt Q13882); conditions: Compound concentration 100.0 nM
[29] = biological target: Mitogen-activated protein kinase kinase kinase 5 (Homo sapiens) (UniProt Q99683); conditions: Compound concentration 100.0 nM
[30] = biological target: Phosphatidylinositol 5-phosphate 4-kinase type-2 gamma (Homo sapiens) (UniProt Q8TBX8); conditions: Compound concentration 100.0 nM
[31] = system: Mast/stem cell growth factor receptor Kit (Homo sapiens), P10721 [V559D]; conditions: Compound concentration 100.0 nM
[32] = biological target: Serine/threonine-protein kinase SIK3 (Homo sapiens) (UniProt Q9Y2K2); conditions: Compound concentration 100.0 nM
[33] = biological target: RAC-alpha serine/threonine-protein kinase (Homo sapiens) (UniProt P31749); conditions: Compound concentration 100.0 nM
[34] = biological target: Dual specificity testis-specific protein kinase 1 (Homo sapiens) (UniProt Q15569); conditions: Compound concentration 100.0 nM
[35] = biological target: 5-hydroxytryptamine receptor 1A (Homo sapiens) (UniProt P08908); conditions: Compound concentration 10.0 uM
[36] = biological target: Cyclin-dependent kinase 2 homolog (Plasmodium falciparum (isolate 3D7)) (UniProt P61075); conditions: Compound concentration 100.0 nM
[37] = system: Mast/stem cell growth factor receptor Kit (Homo sapiens), P10721 [L576P]; conditions: Compound concentration 100.0 nM
[38] = biological target: Serine/threonine-protein kinase Chk2 (Homo sapiens) (UniProt O96017); conditions: Compound concentration 100.0 nM
[39] = biological target: Dual specificity tyrosine-phosphorylation-regulated kinase 1A (Homo sapiens) (UniProt Q13627); conditions: Compound concentration 100.0 nM
[40] = biological target: NT-3 growth factor receptor (Homo sapiens) (UniProt Q16288); conditions: Compound concentration 100.0 nM
[41] = biological target: Interleukin-1 receptor-associated kinase 1 (Homo sapiens) (UniProt P51617); conditions: Compound concentration 100.0 nM
[42] = biological target: Glycogen synthase kinase-3 beta (Homo sapiens) (UniProt P49841); conditions: Compound concentration 100.0 nM
[43] = biological target: Casein kinase I isoform gamma-2 (Homo sapiens) (UniProt P78368); conditions: Compound concentration 100.0 nM
[44] = biological target: Serine/threonine-protein kinase VRK2 (Homo sapiens) (UniProt Q86Y07); conditions: Compound concentration 100.0 nM

Chain of 5-hydroxytryptamine receptor 1A (Homo sapiens) (P08908 whole entry): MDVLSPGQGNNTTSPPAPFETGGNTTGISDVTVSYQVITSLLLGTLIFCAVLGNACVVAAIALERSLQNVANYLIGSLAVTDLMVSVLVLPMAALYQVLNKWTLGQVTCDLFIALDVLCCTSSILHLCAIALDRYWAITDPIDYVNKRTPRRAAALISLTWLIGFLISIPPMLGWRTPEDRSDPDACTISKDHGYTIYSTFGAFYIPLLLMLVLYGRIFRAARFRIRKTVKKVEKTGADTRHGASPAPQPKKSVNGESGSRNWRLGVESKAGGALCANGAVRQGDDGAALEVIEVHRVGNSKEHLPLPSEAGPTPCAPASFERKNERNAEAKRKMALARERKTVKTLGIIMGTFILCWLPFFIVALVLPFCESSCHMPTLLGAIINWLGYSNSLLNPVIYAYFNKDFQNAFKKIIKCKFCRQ
Chain of Interleukin-1 receptor-associated kinase 1 (Homo sapiens) (P51617 whole entry, looked up): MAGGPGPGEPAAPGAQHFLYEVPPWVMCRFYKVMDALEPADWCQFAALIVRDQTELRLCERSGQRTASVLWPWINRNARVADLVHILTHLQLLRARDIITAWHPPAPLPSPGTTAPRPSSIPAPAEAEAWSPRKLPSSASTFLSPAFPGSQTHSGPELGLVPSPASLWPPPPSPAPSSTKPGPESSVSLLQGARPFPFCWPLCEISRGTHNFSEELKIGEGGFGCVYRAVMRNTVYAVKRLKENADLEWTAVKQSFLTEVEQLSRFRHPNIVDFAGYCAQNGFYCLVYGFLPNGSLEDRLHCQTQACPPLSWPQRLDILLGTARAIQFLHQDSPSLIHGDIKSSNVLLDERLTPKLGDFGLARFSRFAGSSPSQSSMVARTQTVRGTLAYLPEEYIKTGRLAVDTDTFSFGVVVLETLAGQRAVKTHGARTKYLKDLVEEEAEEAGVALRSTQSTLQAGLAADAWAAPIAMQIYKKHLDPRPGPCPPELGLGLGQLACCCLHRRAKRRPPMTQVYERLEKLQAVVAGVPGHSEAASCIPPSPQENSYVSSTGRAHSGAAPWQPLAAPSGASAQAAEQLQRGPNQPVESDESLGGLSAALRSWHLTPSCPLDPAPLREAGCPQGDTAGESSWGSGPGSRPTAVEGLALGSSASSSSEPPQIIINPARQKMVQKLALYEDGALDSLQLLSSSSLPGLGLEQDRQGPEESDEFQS
Chain of Protein-tyrosine kinase 6 (Homo sapiens) (Q13882 whole entry, looked up): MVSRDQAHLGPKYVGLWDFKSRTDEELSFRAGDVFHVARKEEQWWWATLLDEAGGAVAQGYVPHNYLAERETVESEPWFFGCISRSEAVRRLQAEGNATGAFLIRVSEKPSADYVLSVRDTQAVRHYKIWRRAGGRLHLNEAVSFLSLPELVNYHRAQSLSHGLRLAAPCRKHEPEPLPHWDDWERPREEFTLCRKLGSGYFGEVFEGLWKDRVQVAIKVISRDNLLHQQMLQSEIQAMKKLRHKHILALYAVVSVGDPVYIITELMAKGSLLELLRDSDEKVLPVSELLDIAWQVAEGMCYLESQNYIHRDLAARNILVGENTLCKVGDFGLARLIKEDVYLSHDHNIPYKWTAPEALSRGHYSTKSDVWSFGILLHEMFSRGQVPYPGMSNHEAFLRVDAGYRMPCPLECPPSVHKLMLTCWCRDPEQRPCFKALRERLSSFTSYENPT
Chain of Non-receptor tyrosine-protein kinase TYK2 (Homo sapiens) (P29597 whole entry): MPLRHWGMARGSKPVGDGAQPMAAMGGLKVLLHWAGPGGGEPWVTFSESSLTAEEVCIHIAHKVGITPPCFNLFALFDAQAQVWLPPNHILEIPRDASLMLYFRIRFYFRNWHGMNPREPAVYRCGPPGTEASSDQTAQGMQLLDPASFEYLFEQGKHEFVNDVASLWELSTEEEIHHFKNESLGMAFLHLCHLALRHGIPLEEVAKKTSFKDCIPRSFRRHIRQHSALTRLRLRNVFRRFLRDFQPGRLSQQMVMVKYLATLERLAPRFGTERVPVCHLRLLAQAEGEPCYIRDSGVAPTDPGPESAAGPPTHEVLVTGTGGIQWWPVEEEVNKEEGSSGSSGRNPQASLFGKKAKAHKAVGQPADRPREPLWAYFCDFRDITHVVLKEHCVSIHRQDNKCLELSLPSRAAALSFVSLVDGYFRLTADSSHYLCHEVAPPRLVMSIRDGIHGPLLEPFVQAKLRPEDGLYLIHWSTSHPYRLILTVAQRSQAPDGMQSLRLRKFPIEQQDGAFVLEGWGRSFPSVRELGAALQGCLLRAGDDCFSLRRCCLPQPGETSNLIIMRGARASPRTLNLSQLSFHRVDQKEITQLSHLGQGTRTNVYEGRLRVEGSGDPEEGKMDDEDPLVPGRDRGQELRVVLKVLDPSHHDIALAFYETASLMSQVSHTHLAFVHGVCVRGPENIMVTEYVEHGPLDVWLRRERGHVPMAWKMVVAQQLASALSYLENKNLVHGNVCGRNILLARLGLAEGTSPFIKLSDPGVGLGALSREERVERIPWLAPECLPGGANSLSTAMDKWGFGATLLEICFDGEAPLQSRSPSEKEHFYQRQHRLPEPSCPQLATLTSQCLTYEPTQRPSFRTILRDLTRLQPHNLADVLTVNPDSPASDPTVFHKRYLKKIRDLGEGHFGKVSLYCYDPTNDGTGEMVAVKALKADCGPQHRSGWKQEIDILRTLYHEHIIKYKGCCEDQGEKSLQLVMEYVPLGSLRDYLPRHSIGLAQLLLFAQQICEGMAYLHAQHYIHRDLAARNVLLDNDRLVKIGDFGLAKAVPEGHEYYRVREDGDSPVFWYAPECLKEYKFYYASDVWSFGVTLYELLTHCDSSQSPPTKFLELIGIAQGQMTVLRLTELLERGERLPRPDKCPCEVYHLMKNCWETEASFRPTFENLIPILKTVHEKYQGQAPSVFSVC
Chain of Casein kinase I isoform gamma-3 (Homo sapiens) (Q9Y6M4 whole entry, looked up, the tested form may be a part, canonical isoform): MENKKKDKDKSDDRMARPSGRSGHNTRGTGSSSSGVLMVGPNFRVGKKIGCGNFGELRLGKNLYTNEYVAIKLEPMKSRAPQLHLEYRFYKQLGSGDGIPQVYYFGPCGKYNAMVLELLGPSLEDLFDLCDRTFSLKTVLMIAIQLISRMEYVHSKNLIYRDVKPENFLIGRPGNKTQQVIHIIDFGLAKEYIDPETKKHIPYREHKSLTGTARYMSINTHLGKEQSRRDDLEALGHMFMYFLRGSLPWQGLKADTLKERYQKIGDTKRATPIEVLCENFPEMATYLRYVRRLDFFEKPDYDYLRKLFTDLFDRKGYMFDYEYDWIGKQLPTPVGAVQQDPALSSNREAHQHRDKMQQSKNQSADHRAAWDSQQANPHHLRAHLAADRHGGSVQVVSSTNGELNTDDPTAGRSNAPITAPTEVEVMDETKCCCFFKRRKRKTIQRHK
Chain of Protein kinase C delta type (Homo sapiens) (Q05655 whole entry, looked up): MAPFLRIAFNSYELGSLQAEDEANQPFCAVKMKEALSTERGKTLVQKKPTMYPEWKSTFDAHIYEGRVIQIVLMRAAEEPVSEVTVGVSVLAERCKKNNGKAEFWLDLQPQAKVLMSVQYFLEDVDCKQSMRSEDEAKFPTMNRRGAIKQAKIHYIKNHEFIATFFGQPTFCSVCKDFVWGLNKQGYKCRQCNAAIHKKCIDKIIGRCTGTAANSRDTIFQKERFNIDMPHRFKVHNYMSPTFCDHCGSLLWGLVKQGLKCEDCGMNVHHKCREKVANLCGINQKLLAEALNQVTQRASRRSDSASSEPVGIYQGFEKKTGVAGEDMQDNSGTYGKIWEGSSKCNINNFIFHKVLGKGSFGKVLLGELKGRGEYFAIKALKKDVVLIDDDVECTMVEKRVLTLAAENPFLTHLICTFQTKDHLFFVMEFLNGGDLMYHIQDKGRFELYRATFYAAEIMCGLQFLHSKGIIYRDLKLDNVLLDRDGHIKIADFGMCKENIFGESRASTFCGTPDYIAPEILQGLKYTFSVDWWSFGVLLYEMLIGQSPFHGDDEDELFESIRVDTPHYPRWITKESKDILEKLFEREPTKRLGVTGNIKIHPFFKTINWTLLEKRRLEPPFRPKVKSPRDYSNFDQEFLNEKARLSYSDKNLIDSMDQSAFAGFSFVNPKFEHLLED
Chain of Mitogen-activated protein kinase 1 (Homo sapiens) (P28482 whole entry): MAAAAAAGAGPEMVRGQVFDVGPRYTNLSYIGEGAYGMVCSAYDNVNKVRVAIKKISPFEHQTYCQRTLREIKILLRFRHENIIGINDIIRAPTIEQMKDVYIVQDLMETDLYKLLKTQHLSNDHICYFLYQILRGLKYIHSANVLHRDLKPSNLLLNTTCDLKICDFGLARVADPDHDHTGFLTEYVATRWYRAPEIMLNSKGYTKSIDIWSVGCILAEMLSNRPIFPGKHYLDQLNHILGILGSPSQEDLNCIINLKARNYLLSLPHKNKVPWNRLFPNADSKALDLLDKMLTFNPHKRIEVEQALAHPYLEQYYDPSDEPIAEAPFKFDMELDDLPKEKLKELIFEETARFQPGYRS
Chain of Casein kinase II subunit alpha' (Homo sapiens) (P19784 whole entry, looked up): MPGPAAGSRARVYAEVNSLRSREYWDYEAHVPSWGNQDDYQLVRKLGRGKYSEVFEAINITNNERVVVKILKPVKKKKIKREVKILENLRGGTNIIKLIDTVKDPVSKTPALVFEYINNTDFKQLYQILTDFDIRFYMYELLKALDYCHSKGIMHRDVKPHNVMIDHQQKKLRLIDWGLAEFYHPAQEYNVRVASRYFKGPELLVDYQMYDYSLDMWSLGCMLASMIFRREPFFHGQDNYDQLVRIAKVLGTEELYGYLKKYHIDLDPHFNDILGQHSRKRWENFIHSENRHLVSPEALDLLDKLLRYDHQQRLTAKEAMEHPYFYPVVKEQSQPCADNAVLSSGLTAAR
Chain of Casein kinase I isoform alpha (Homo sapiens) (P48729 2-337 limits assumed): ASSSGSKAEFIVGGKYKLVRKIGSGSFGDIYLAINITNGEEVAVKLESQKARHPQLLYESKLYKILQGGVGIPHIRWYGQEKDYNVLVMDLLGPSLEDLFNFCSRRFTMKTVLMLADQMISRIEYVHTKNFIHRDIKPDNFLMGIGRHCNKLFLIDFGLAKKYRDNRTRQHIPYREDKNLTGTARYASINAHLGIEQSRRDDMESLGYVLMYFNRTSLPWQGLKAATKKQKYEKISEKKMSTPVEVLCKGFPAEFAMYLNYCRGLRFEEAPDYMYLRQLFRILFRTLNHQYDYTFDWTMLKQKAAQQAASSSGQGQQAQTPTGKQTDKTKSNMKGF

Molecule `Nc1c(C(=O)NCc2ccc(C(=O)NCCCC3CCCCC3)cc2)cnn1-c1ccccc1` [SR-318] has a residual activity [1] of 100%, a residual activity [2] of 100% and a residual activity [3] of 100%. The residual activity [4] was 100%, the residual activity [5] was 100% and the residual activity [6] was 100%. For the same molecule, the residual activity [7] was 92%, the residual activity [8] was 100% and the residual activity [9] was 100%. It also gave a residual activity [10] of 92%, a residual activity [11] of 88% and a residual activity [12] of 88%. It also gave a residual activity [13] of 100%, a residual activity [14] of 100% and a residual activity [15] of 90%. The residual activity [16] was 100%, the residual activity [17] was 100% and the residual activity [18] was 100%. The residual activity [19] was 100%, the residual activity [20] was 100% and the residual activity [21] was 100%. For the same molecule, the residual activity [22] was 100%, the residual activity [23] was 100% and the residual activity [24] was 100%. It also gave a residual activity [25] of 96%, a residual activity [26] of 80% and a residual activity [27] of 100%. The residual activity [28] was 96%, the residual activity [29] was 81% and the residual activity [30] was 100%. For the same molecule, the residual activity [31] was 45%, the residual activity [32] was 94% and the residual activity [33] was 100%. For the same molecule, the residual activity [34] was 100%, the inhibition [35] was -1.43% and the residual activity [36] was 100%. For the same molecule, the residual activity [37] was 73%, the residual activity [38] was 88% and the residual activity [39] was 100%. The residual activity [40] was 97%, the residual activity [41] was 86% and the residual activity [42] was 100%. For the same molecule, the residual activity [43] was 94% and the residual activity [44] was 92%.
In the case of `O=C(NCCCC1CCCCC1)c1ccc(CNC(=O)c2cnn(-c3ccccc3)c2C(F)(F)F)cc1` [SR-321], the residual activity [1] is reported as 93%, the residual activity [2] is reported as 100% and the residual activity [3] is reported as 100%. The residual activity [4] was 100%, the residual activity [5] was 100% and the residual activity [6] was 100%. For the same molecule, the residual activity [7] was 100%, the residual activity [8] was 100% and the residual activity [9] was 95%. For the same molecule, the residual activity [10] was 100%, the residual activity [11] was 100% and the residual activity [12] was 100%. The residual activity [13] was 100%, the residual activity [14] was 100% and the residual activity [15] was 100%. It also gave a residual activity [16] of 93%, a residual activity [17] of 88% and a residual activity [18] of 100%. For the same molecule, the residual activity [19] was 68%, the residual activity [20] was 99% and the residual activity [21] was 79%. For the same molecule, the residual activity [22] was 99%, the residual activity [23] was 100% and the residual activity [24] was 91%. The residual activity [25] was 100%, the residual activity [26] was 100% and the residual activity [27] was 84%. It also gave a residual activity [28] of 97%, a residual activity [29] of 91% and a residual activity [30] of 99%. For the same molecule, the residual activity [31] was 100%, the residual activity [32] was 76% and the residual activity [33] was 100%. The residual activity [34] was 100%, the inhibition [35] was 20.1% and the residual activity [36] was 100%. For the same molecule, the residual activity [37] was 100%, the residual activity [38] was 100% and the residual activity [39] was 99%. For the same molecule, the residual activity [40] was 100%, the residual activity [41] was 100% and the residual activity [42] was 100%. It also gave a residual activity [43] of 96% and a residual activity [44] of 100%.
